From publication PMC7770263 (The Journal of International Medical Research, 2020)

Assays:
[1] = Pharmacokinetic tests in rats; type: in vivo, Sprague–Dawley rats; conditions: for absorption in vivo (in words) / elimination rate (in words): intravenous injection of the compound preparation
[2] = Stability test of QC samples in rat plasma; type: in vitro ADME; conditions: for Extracted sample stability, Concentration / Extracted sample stability, Accuracy: extracted rat plasma samples; for Extracted sample stability, Accuracy / Long-term stability, Accuracy: relative error; for Short-term stability, Concentration / Long-term stability, Accuracy / stability values (short- and long-term stability): rat plasma; for Short-term stability, Concentration: room temperature for 24 hours; for Long-term stability, Accuracy: −20°C for 30 days; for stability values (short- and long-term stability): all QC concentrations, room temperature 24 hours and −20°C 30 days
[3] = rat plasma, intravenous injection of ticarcillin disodium and clavulanate, 144 mg/kg
[4] = rat plasma, intravenous injection, 144 mg/kg, mean ± standard deviation
[5] = rat, intravenous injection, 144 mg/kg, mean ± standard deviation
[6] = nominal concentration 2400 ng/mL
[7] = nominal concentration 8000 ng/mL
[8] = male, Sprague-Dawley, rat, plasma, iv, 144 mg/kg
[9] = nominal concentration 300 ng/mL

Row | SMILES | tmax [1, 3] | AUC0-t [1, 4] | AUC0-∞ [1, 4] | absorption in vivo (in words) ([1]; rat) | CL(/F) (clearance) [1, 5] | Vss obs (observed volume of distribution at steady state) [1, 5] | Extracted sample stability, Concentration ([2]; nominal concentration 30 ng/mL) | Extracted sample stability, Accuracy ([2]; nominal concentration 30 ng/mL) | Extracted sample stability, Concentration [2, 6] | Extracted sample stability, Accuracy [2, 6] | Extracted sample stability, Concentration [2, 7] | Extracted sample stability, Accuracy [2, 7] | Short-term stability, Concentration ([2]; nominal concentration 30 ng/mL) | Short-term stability, Concentration [2, 6] | Short-term stability, Concentration [2, 7] | Long-term stability, Accuracy ([2]; nominal concentration 30 ng/mL) | Long-term stability, Accuracy [2, 6] | Long-term stability, Accuracy [2, 7] | elimination rate (in words) ([1]; rat) | stability values (short- and long-term stability) [2] | also measured
1 | CC1(C)S[C@@H]2[C@H](NC(=O)[C@@H](C(=O)O)c3ccsc3)C(=O)N2[C@H]1C(=O)O [Ticarcillin S] | 4.98 min | 3270 ± 262 ng·h/mL | 3274 ± 264 ng·h/mL | rapidly absorbed in vivo | 827.8 ± 63.2 mL/min/kg | 12.2 ± 0.68 L/kg | 30.8 ± 1.3 ng/mL | 2.7% | 2,465 ± 12 ng/mL | 2.7% | 7985 ± 93 ng/mL | −0.2% | 28.8 ± 0.9 ng/mL | 2457 ± 19 ng/mL | 7931 ± 113 ng/mL | −2.3% | 1.3% | −0.6% | – | – | –
2 | CC1(C)S[C@@H]2[C@H](NC(=O)[C@H](C(=O)O)c3ccsc3)C(=O)N2[C@H]1C(=O)O [Ticarcillin R] | 4.98 min | 3,654,298 ± 430,890 ng·h/mL | 3,654,643 ± 431,153 ng·h/mL | rapidly absorbed in vivo | 0.733 ± 0.17 mL/min/kg | 0.02 ± 0.00 L/kg | 28.6 ± 0.8 ng/mL | −4.7% | 2427 ± 16 ng/mL | 1.1% | 8291 ± 91 ng/mL | 3.6% | 30.4 ± 0.6 ng/mL | 2349 ± 15 ng/mL | 7918 ± 107 ng/mL | −4.3% | −0.5% | 0.8% | slower | – | –
3 | CC1(C)S[C@@H]2[C@H](NC(=O)[C@H](C(=O)O)c3ccsc3)C(=O)N2[C@H]1C(=O)O [ticarcillin] | – | – | – | – | – | – | – | – | – | – | – | – | – | – | – | – | – | – | – | −4.3% to 3.2 | –
4 | O=C(O)[C@H]1/C(=C/CO)O[C@@H]2CC(=O)N21 [Clavulanate] | – | – | – | rapidly absorbed in vivo | 5780 ± 3400 mL/min/kg | – | – | – | 2344 ± 98 ng/mL | −2.3% | – | – | – | 2389 ± 118 ng/mL | – | – | −1.1% | – | shortest t1/2 and most rapid elimination | −4.3% to 3.2 | AUC0-t [1, 8]: 541 ± 254 ng·h/mL; AUC(0-inf) [1, 8]: 559 ± 251 ng·h/mL; Cmax [1, 8]: 1660 ± 667 ng/mL; half-life [1, 8]: 10.2 ± 2.4 min; tmax [1, 8]: 4.98 min; Extracted sample stability, Accuracy ([2]; nominal concentration 80 ng/mL): −2.8%; Extracted sample stability, Concentration [2, 9]: 295 ± 17 ng/mL; Extracted sample stability, Accuracy [2, 9]: −1.7%; Short-term stability, Concentration ([2]; nominal concentration 80 ng/mL): 81.4 ± 0.6 ng/mL; Short-term stability, Concentration [2, 9]: 305 ± 11 ng/mL; Long-term stability, Accuracy ([2]; nominal concentration 80 ng/mL): 3.2%; Long-term stability, Accuracy [2, 9]: −3.7%
